IC50 data for 82 molecules are collected here from the Kinase Knowledgebase extract (Sharma et al. 2016).

A value given as a limit tells only on which side of the number the result lay.

In this test the target is EGFR (UniProt P00533).
Chain of EGFR (P00533 whole entry, looked up): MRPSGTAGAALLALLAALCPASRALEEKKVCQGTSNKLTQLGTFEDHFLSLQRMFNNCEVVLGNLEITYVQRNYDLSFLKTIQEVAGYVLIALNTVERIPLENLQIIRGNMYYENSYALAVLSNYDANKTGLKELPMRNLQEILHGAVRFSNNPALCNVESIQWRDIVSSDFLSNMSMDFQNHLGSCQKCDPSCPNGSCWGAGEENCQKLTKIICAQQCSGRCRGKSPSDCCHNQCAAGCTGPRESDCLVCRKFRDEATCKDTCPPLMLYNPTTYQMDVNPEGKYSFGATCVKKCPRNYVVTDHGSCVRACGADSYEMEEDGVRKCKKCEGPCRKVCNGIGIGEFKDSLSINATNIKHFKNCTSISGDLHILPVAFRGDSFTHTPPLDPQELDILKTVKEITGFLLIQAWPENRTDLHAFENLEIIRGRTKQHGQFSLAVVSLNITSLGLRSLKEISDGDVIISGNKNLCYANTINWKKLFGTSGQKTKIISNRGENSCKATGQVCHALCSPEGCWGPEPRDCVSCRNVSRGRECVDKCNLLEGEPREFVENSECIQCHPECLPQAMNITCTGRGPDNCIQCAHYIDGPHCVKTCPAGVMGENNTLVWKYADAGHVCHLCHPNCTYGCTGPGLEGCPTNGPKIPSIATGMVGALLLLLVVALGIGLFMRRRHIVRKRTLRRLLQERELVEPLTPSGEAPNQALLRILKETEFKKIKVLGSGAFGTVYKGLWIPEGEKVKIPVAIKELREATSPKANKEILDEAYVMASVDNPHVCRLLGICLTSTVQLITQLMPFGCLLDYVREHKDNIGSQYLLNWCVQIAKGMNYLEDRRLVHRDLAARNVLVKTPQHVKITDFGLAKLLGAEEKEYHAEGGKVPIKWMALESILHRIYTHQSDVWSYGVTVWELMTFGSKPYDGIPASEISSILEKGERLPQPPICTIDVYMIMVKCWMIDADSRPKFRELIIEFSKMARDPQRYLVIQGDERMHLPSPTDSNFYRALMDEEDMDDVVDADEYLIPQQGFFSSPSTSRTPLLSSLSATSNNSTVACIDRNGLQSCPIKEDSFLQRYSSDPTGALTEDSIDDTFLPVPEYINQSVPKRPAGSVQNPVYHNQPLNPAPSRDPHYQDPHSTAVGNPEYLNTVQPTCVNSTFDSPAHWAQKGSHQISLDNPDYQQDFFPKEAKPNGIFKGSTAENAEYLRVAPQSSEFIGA
A word on the IC50: it is the concentration needed to halve the response being measured. For `COc1cc2c(Nc3ccc(Br)c(C)c3)ncnc2cc1OCC1CN(C)CCO1` (configuration not stated), the IC50 is < 50 nM.
For the molecule `COc1cc2c(Nc3ccc(Cl)c(Cl)c3)ncnc2cc1OCC1CN(CCCC#N)CCO1` (configuration not stated), the half-inhibitory concentration (IC50) was < 50 nM.
In the case of `COc1cc2c(Nc3cc(Cl)c(Cl)cc3F)ncnc2cc1OC[C@H]1CN2CCOC[C@H]2CO1`, the half-maximal inhibitory concentration (IC50) is < 50 nM.
Consider `COc1cc2c(Nc3ccc(Br)c(Cl)c3)ncnc2cc1O[C@H]1CO[C@@H]2[C@H]1OC[C@@H]2SC`, for which the 50% inhibitory concentration (IC50) is < 50 nM.
`COc1cc2c(Nc3ccc(Cl)c(Cl)c3)ncnc2cc1OCC1CN(C(=O)C2CCCC2)CCO1` (configuration not stated): the IC50 is < 50 nM.
The value for `COc1cc2c(Nc3ccc(Cl)c(Cl)c3)ncnc2cc1OC[C@H]1C[C@@H]2CN(C)C[C@@H]2C1` was < 50 nM; that for `COc1cc2c(Nc3ccc(Cl)c(Cl)c3)ncnc2cc1OCC1CC1` was < 50 nM; that for `COc1cc2c(Nc3ccc(Cl)c(Cl)c3)ncnc2cc1OCC1CN(C(C)C)CCCO1` (configuration not stated) was < 50 nM.
`COCCOc1cc2c(Nc3ccc(Cl)c(Cl)c3)ncnc2cc1OCC1CNCCO1` (configuration not stated): the half-inhibitory concentration (IC50) is < 50 nM.
For the molecule `COc1cc2c(Nc3ccc(Br)c(Cl)c3)ncnc2cc1O[C@H]1CO[C@@H]2[C@H]1OC[C@@H]2N1CCN(C)CC1`, the IC50 was < 50 nM.
`CCN1CCN(CC)C(COc2cc3ncnc(Nc4ccc(Cl)c(Cl)c4)c3cc2OC)C1` (configuration not stated): the IC50 was < 50 nM.
Turning to `COc1cc2c(Nc3ccc(Cl)c(Cl)c3)ncnc2cc1OCC1CN(CCC2CCCCC2)CCCO1` (configuration not stated), the IC50 was < 50 nM.
Regarding `COc1cc2c(Nc3ccc(Cl)c(C(F)(F)F)c3)ncnc2cc1O[C@@H]1CO[C@@H]2[C@H]1OC[C@H]2F`, the half-inhibitory concentration (IC50) was < 50 nM.
As to `COc1cc2c(Nc3ccc(Cl)c(Cl)c3)ncnc2cc1OCC1CN(C)C(C)(C)CO1` (configuration not stated), the IC50 was < 50 nM.
With `COc1cc2c(Nc3cc(F)c(Br)cc3F)ncnc2cc1OCC1CN(C)CCO1` (configuration not stated), the concentration for half-maximal inhibition (IC50) was < 50 nM.
The value for `COc1cc2c(Nc3ccc(Cl)c(Cl)c3)ncnc2cc1OCC1CN(CCCc2ccccc2)CCO1` (configuration not stated) was < 50 nM; that for `CC[C@@H](C)CN1CCOC(COc2cc3ncnc(Nc4ccc(Cl)c(Cl)c4)c3cc2OC)C1` (some centres not stated) was < 50 nM.
Regarding `COc1cc2c(Nc3ccc(Cl)c(Cl)c3)ncnc2cc1OCC1CN2CCOCC2CO1` (configuration not stated), the IC50 is < 50 nM.
`COc1cc2c(Nc3ccc(Cl)c(Cl)c3)ncnc2cc1OCC1CN(C)CCN1C` (configuration not stated): the IC50 is < 50 nM.
The value for `COc1cc2c(Nc3cc(C)cc(C)c3)ncnc2cc1O[C@@H]1CO[C@@H]2[C@H]1OC[C@H]2F` was < 50 nM; that for `COc1cc2c(Nc3ccc(Cl)c(Cl)c3)ncnc2cc1OCC1CN(C(=O)C(C)(C)C)CCO1` (configuration not stated) was < 50 nM; that for `COc1cc2c(Nc3ccc(F)cc3C(F)(F)F)ncnc2cc1O[C@@H]1CO[C@@H]2[C@H]1OC[C@H]2F` was < 50 nM.
Consider `COc1cc2c(Nc3ccc(Cl)c(Cl)c3F)ncnc2cc1OC[C@@H]1CN(C)CC(=O)N1C`, for which the IC50 was < 50 nM.
The value for `COc1cc2c(Nc3ccc(Br)c(Cl)c3F)ncnc2cc1O[C@@H]1CO[C@@H]2[C@H]1OC[C@H]2F` was < 50 nM.
With `COc1cc2c(Nc3ccc(Cl)c(Cl)c3N3CCN(C)CC3)ncnc2cc1O[C@H]1CO[C@@H]2[C@H]1OC[C@@H]2F`, the IC50 is < 50 nM.
Take `COc1cc2c(Nc3ccc(Cl)cc3Cl)ncnc2cc1O[C@@H]1CO[C@@H]2[C@H]1OC[C@H]2F`: the half-inhibitory concentration (IC50) was < 50 nM.
Consider `C=CCCCCCCN1CCOC(COc2cc3ncnc(Nc4ccc(Cl)c(Cl)c4)c3cc2OC)C1` (configuration not stated), for which the 50% inhibitory concentration (IC50) was < 50 nM.
As to `COc1cc2c(Nc3ccc(Cl)c(Cl)c3)ncnc2cc1OCc1csc([C@@H]2CCCN2)n1`, the IC50 was < 50 nM.
In the case of `COc1cc2c(Nc3ccc(Cl)c(Cl)c3)ncnc2cc1OCC1CN(CC=C(C)C)CCO1` (configuration not stated), the IC50 is < 50 nM.
Regarding `COc1cc2c(Nc3cc(Cl)c(Cl)c(Cl)c3)ncnc2cc1OCC1CN(C)CCO1` (configuration not stated), the 50% inhibitory concentration (IC50) is < 50 nM.
In the case of `COc1cc2c(Nc3ccc(Br)c(Cl)c3)ncnc2cc1O[C@H]1CO[C@@H]2[C@H]1OC[C@@H]2NC(C)=O`, the IC50 is < 50 nM.
For the molecule `CCCCS(=O)(=O)N1CCOC(COc2cc3ncnc(Nc4ccc(Cl)c(Cl)c4)c3cc2OC)C1` (configuration not stated), the IC50 was < 50 nM.
Take `COc1cc2c(Nc3ccc(Cl)c(Cl)c3Cl)ncnc2cc1OCC1CN(C)CCO1` (configuration not stated): the half-maximal inhibitory concentration (IC50) is < 50 nM.
Regarding `COc1cc2c(Nc3ccc(Br)c(Cl)c3)ncnc2cc1OC1CCN(C)C1` (configuration not stated), the half-maximal inhibitory concentration (IC50) was < 50 nM.
The value for `COc1cc2c(Nc3ccc(Cl)c(Cl)c3)ncnc2cc1OCc1nc(CN2CCN(C)CC2)cs1` was < 50 nM; that for `COc1cc2c(Nc3ccc(Cl)c(Cl)c3)ncnc2cc1OCc1noc(C2CCCN2)n1` (configuration not stated) was < 50 nM; that for `COc1cc2c(Nc3cccc(Cl)c3F)ncnc2cc1OCC1CN(C)CCO1` (configuration not stated) was < 50 nM.
Regarding `COc1cc2c(Nc3ccc(Cl)c(Cl)c3F)ncnc2cc1O[C@H]1CO[C@H]2[C@@H]1OC[C@@H]2OC`, the half-inhibitory concentration (IC50) was < 50 nM.
Consider `COc1cc2c(Nc3cc(Cl)ccc3F)ncnc2cc1OCC1CN(C)CCO1` (configuration not stated), for which the concentration for half-maximal inhibition (IC50) was < 50 nM.
Turning to `CCN1CCOC(COc2cc3ncnc(Nc4ccc(Cl)c(Cl)c4)c3cc2OC)C1` (configuration not stated), the IC50 was < 50 nM.
As to `COC[C@@]1(OC)CO[C@@H]2[C@H]1OC[C@H]2Oc1cc2ncnc(Nc3ccc(Br)c(Cl)c3)c2cc1OC`, the 50% inhibitory concentration (IC50) was < 50 nM.
Turning to `COc1cc2c(Nc3ccc(Cl)c(Cl)c3)ncnc2cc1OC1CCCC1`, the IC50 was < 50 nM.
For the molecule `COc1cc2c(Nc3ccc(Cl)c(Cl)c3)ncnc2cc1OCC1CN(CCC(C)C)CCCO1` (configuration not stated), the IC50 was < 50 nM.
The molecule `COc1cc2c(Nc3ccc(Cl)c(Cl)c3)ncnc2cc1OCc1csc2ccc(Cl)cc12` gave an IC50 of 50 to 1000 nM.
The value for `COc1cc2c(Nc3ccc(Cl)c(Cl)c3F)ncnc2cc1OC[C@@H]1CN2CCOC[C@H]2CO1` was < 50 nM; that for `COc1cc2c(Nc3ccc(Cl)c(Cl)c3)ncnc2cc1OCC1CN(C(=O)c2cccnc2Cl)CCO1` (configuration not stated) was < 50 nM.
Consider `COc1cc2c(Nc3ccc(Cl)c(Cl)c3)ncnc2cc1OCC1CN(CC2CC2)CCO1` (configuration not stated), for which the half-maximal inhibitory concentration (IC50) was < 50 nM.
Take `COc1cc2c(Nc3ccc(Cl)c(Cl)c3F)ncnc2cc1OC[C@@H]1CN(C)CC(=O)N1`: the 50% inhibitory concentration (IC50) is < 50 nM.
Take `COc1cc2c(Nc3ccc(Cl)c(Cl)c3F)ncnc2cc1OCC1CN(C)C(C)(C)CO1` (configuration not stated): the half-maximal inhibitory concentration (IC50) was < 50 nM.
`COc1cc2c(Nc3cc(F)c(Oc4ccc(Cl)cc4)c(F)c3)ncnc2cc1O[C@@H]1CO[C@@H]2[C@H]1OC[C@H]2F`: the half-inhibitory concentration (IC50) was < 50 nM.
On to `COc1cc2c(Nc3ccc(Br)c(Cl)c3Cl)ncnc2cc1OCC1CN(C)CCO1` (configuration not stated), for which the 50% inhibitory concentration (IC50) was < 50 nM.
Take `COc1ccc(OC)c(Nc2ncnc3cc(O[C@@H]4CO[C@@H]5[C@H]4OC[C@H]5F)c(OC)cc23)c1`: the IC50 was < 50 nM.
`COc1cc2c(Nc3ccc(Cl)c(Cl)c3)ncnc2cc1OCC1CN(C(=O)c2ccc3c(c2)OCO3)CCO1` (configuration not stated): the half-inhibitory concentration (IC50) was < 50 nM.
For `COc1cc2c(Nc3cccc(Cl)c3C)ncnc2cc1OCC1CN(C)CCO1` (configuration not stated), the concentration for half-maximal inhibition (IC50) is < 50 nM.
The value for `COc1cc2c(Nc3ccc(Cl)c(Cl)c3)ncnc2cc1OCc1csc(C2CCCN(C)C2)n1` (configuration not stated) was < 50 nM; that for `COc1cc2c(Nc3ccc(Cl)c(Cl)c3)ncnc2cc1OCC1CN(CC(N)=O)CCO1` (configuration not stated) was < 50 nM.
With `COc1cc2c(Nc3ccccc3Cl)ncnc2cc1O[C@@H]1CO[C@@H]2[C@H]1OC[C@H]2F`, the IC50 was < 50 nM.
For the molecule `COc1cc2c(Nc3ccccc3Br)ncnc2cc1O[C@@H]1CO[C@@H]2[C@H]1OC[C@H]2F`, the IC50 is < 50 nM.
Take `COc1cc2c(Nc3ccc(Br)c(Cl)c3)ncnc2cc1O[C@H]1CO[C@@H]2[C@H]1OC[C@@H]2N1CCOCC1`: the IC50 was < 50 nM.
Take `COc1cc2c(Nc3ccc(Cl)c(Cl)c3)ncnc2cc1OCCC1OCCCO1`: the IC50 is < 50 nM.
Regarding `COc1cc2c(Nc3ccc(Cl)cc3F)ncnc2cc1OCC1CN(C)CCO1` (configuration not stated), the half-inhibitory concentration (IC50) is < 50 nM.
Take `COc1cc2c(Nc3ccc(Br)c(Cl)c3)ncnc2cc1O[C@H]1COC[C@H]1OC`: the IC50 is < 50 nM.
The value for `COc1cc2c(Nc3ccc(Cl)c(Cl)c3)ncnc2cc1OCc1nc2c(s1)CN(C)CC2` was < 50 nM; that for `COc1cc2c(Nc3cc(Cl)ccc3C)ncnc2cc1O[C@@H]1CO[C@@H]2[C@H]1OC[C@H]2F` was < 50 nM.
The value for `COc1cc2c(Nc3ccc(Cl)c(Cl)c3)ncnc2cc1OCC1CNCC(C)(C)O1` (configuration not stated) was < 50 nM.
As for `COc1cc2c(Nc3ccc(Br)cc3F)ncnc2cc1OCC1CN(C)CCO1` (configuration not stated), the half-maximal inhibitory concentration (IC50) is < 50 nM.
The value for `COc1cc2c(Nc3ccc(F)c(Cl)c3F)ncnc2cc1O[C@@H]1CO[C@@H]2[C@H]1OC[C@H]2F` was < 50 nM; that for `COc1cc2c(Nc3ccc(Cl)c(Cl)c3)ncnc2cc1OCC1CN(C(=O)c2ccc(Cl)nc2)CCO1` (configuration not stated) was < 50 nM.
The value for `COc1cc2c(Nc3ccc(Cl)c(Cl)c3)ncnc2cc1OCC1CN(CC2CCCCO2)CCO1` (configuration not stated) was < 50 nM.
The value for `CCC1(C)CN(C)CC(COc2cc3ncnc(Nc4ccc(Cl)c(Cl)c4)c3cc2OC)O1` (configuration not stated) was < 50 nM.
Turning to `COc1cc2c(Nc3ccc(Cl)c(Cl)c3F)ncnc2cc1OC[C@@H]1CN2CCC[C@H]2CO1`, the IC50 was < 50 nM.
The value for `CCS(=O)(=O)N1CCOC(COc2cc3ncnc(Nc4ccc(Cl)c(Cl)c4)c3cc2OC)C1` (configuration not stated) was < 50 nM.
In the case of `COc1cc2c(Nc3ccc(F)cc3F)ncnc2cc1O[C@@H]1CO[C@@H]2[C@H]1OC[C@H]2F`, the 50% inhibitory concentration (IC50) was < 50 nM.
For the molecule `CCC(C(=O)N1CCOC(COc2cc3ncnc(Nc4ccc(Cl)c(Cl)c4)c3cc2OC)C1)c1ccccc1` (configuration not stated), the IC50 was < 50 nM.
The value for `COc1cc2c(Nc3c(F)cccc3F)ncnc2cc1O[C@@H]1CO[C@@H]2[C@H]1OC[C@H]2F` was < 50 nM.
As for `COc1cc2c(Nc3ccc(Cl)c(Cl)c3)ncnc2cc1OCC1CN(S(=O)(=O)c2ccccc2)CCO1` (configuration not stated), the IC50 was < 50 nM.
As for `COc1cc2c(Nc3cccc(Br)c3)ncnc2cc1O[C@@H]1CO[C@@H]2[C@H]1OC[C@H]2F`, the IC50 was < 50 nM.
The value for `COc1cc2c(Nc3ccc(Br)c(Cl)c3F)ncnc2cc1OC[C@@H]1CN2CCC[C@H]2CO1` was < 50 nM; that for `COc1cc2c(Nc3cc(Cl)c(Br)cc3F)ncnc2cc1OC[C@@H]1CN2CCC[C@H]2CO1` was < 50 nM.
Turning to `CCC(CC)CN1CCOC(COc2cc3ncnc(Nc4ccc(Cl)c(Cl)c4)c3cc2OC)C1` (configuration not stated), the 50% inhibitory concentration (IC50) is < 50 nM.
With `COc1cc2c(Nc3ccc(Cl)c(Cl)c3)ncnc2cc1OCc1nc([C@@H]2CCCN2)no1`, the half-inhibitory concentration (IC50) was < 50 nM.
The value for `COc1cc2c(Nc3ccc(Br)c(Cl)c3F)ncnc2cc1OC[C@@H]1CN(C)CC(=O)N1` was < 50 nM.
